What is called pKi is the Ki on a negative log10 scale, so that one unit is a factor of ten.

pKi: −log10 of the molar value.

ID50 and Ki data for eight compounds are collected here from ChEMBL document CHEMBL1148493, “A combination of docking/dynamics simulations and pharmacophoric modeling to discover new dual c-Src/Abl kinase inhibitors” (J Med Chem, 2006).

Assay [1] has as its target Proto-oncogene tyrosine-protein kinase Src (Homo sapiens, UniProt P12931). Put plainly: Binding affinity to human recombinant Src.
In assay [2] the target is Tyrosine-protein kinase ABL1 (Homo sapiens) (UniProt P00519).
Sequence of Tyrosine-protein kinase ABL1 (Homo sapiens) (P00519 whole entry): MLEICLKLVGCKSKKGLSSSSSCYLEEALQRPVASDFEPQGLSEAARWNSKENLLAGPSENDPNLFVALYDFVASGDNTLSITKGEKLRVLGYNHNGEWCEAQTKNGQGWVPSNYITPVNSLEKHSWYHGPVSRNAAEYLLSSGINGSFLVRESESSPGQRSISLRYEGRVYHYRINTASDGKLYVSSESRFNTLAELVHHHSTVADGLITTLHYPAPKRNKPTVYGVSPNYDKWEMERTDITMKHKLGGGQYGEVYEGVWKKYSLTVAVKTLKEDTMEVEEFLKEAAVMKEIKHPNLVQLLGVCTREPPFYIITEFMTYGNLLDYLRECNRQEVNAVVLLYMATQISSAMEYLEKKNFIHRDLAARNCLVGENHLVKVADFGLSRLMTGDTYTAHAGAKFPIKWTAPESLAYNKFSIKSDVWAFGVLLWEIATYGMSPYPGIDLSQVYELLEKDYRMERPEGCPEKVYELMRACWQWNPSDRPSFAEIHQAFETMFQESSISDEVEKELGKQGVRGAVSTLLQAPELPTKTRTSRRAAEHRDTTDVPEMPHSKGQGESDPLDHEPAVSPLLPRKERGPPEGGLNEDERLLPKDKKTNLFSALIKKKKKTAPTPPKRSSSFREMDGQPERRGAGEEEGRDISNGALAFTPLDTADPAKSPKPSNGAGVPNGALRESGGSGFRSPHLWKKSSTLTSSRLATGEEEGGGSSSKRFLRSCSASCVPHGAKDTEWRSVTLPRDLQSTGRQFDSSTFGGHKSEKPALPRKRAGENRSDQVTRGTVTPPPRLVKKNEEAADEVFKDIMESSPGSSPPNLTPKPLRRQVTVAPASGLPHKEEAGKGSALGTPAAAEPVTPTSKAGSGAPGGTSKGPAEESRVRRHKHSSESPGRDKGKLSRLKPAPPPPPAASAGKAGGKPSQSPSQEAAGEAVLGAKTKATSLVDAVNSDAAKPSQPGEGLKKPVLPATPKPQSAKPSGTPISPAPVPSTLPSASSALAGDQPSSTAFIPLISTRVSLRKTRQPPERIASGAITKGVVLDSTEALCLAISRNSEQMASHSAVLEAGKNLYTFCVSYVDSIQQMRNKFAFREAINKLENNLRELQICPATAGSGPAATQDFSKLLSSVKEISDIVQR
Description: Binding affinity to human recombinant Abl

Sequence of Proto-oncogene tyrosine-protein kinase Src (P12931 2-536 limits assumed): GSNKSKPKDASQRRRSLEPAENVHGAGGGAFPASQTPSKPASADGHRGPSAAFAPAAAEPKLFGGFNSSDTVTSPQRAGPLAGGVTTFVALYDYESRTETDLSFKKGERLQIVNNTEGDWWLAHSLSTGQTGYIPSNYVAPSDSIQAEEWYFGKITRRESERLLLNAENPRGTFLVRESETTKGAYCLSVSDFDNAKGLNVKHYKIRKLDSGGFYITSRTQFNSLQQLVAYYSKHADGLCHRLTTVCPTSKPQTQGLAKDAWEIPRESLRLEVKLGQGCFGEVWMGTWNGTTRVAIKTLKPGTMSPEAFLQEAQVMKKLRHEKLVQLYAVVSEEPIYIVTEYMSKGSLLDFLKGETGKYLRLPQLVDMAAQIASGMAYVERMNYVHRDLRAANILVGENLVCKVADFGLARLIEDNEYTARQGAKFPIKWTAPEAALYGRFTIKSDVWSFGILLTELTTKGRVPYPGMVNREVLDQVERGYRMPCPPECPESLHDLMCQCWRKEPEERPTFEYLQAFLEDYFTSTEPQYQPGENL

For `Cc1ccc(-c2cnc(NC(=O)c3ccc(Br)cc3)s2)cc1`, the ID50 in assay [1] and in assay [2] was greater than 2000 µM throughout. Consider `COc1ccc(C(=O)Nc2nnc(Cc3c[nH]c4ccccc34)s2)cc1`, for which the ID50 in assay [2] was greater than 2000 µM. Turning to `O=C(Nc1nnc(CCc2ccccc2)s1)c1ccccc1`, the pKi in assay [1] was 5.54. For the same compound, the ID50 in assay [2] was greater than 2000 µM. Compound `O=C(Nc1nnc(CCc2ccccc2)s1)c1ccc(Cl)cc1Cl` showed an ID50 in assay [2] greater than 2000 µM.

In the case of `O=C1NN(c2ccc(I)cc2)C(=O)/C1=C\c1ccc(N2CCOCC2)cc1`, the ID50 in assay [1] was greater than 2000 µM.

`CCN(CC)c1ccc(/C=C2/C(=O)NN(c3ccc(I)cc3)C2=O)c(O)c1` registered an ID50 in assay [2] greater than 2000 µM. Same read-out and setting: under `O=C1NN(c2ccccc2)C(=O)/C1=C\c1ccccc1OCc1ccccc1` stands greater than 2000 µM. In the case of `O=C(Nc1ccccc1)Nc1nnc(Cc2ccccc2)s1`, the ID50 in assay [1] was greater than 2000 µM.
